Test in all cases: biochemical
One assay concerns the target DR1 (DRB1*0101) (Homo sapiens, UniProt P01903+P01911, A100R/D57E/F55L/F60I/F76Y/I96L/L162R/M171V/P40L/Q125E/R42F/V115G/Y59C). It counts as binding.
A further assay deals with DRB3*0101 (Homo sapiens, UniProt P01903+P79483). It counts as binding.
The next assay has as its target DRB4*0101 (Homo sapiens, UniProt P01903+P13762, G164S). The format is binding.
A further assay has as its target DRB5*0101 (Homo sapiens, UniProt P01903+Q30154). As to conditions: Binding affinity DRB5 *0101.
In the next assay the target is DRB1*1101 (Homo sapiens, UniProt P01903+P01911, A100R/A169T/A87E/I96F/K41T/L162R/M171V/P40S/Q125H/Q178H/Q39Y/Q99D/R42S/S66Y/T262R/V115G/W38E). As to conditions: Binding affinity DRB1 *1101.
For a further assay, the target named is DRB1*1302 (Homo sapiens, UniProt P01903+P01911, A100E/A169T/K41T/L162R/M171V/P40S/Q125H/Q178H/Q39Y/Q99D/R42S/S66N/T262R/V115G/W38E/Y61H). The format is binding.
In the next assay the target is DR7 (DRB1*0701) (Homo sapiens, UniProt P01903+P01911, A100R/A102G/A103Q/D57E/D86V/E43K/F76Y/K127E/L162R/M171V/P40G/Q125H/Q99D/R33Q/R42Y/R54Q/S133A/S66F/T210M/V115G/Y107V/Y59L/Y89S). The format is binding.
The next assay has as its target DRB1*0301 (Homo sapiens, UniProt P01903+P01911, A100K/A102G/A103R/A169T/F55Y/I96L/K41T/L162R/M171V/P40S/Q125H/Q178H/Q39Y/R42S/S66N/T106N/T262R/W38E/Y61H). It counts as binding.
For a further assay, the target named is DRB1*1501 (Homo sapiens, UniProt P01903+P01911). It counts as binding.
The next assay deals with DRB1*0405 (Homo sapiens, UniProt P01903+P01911, A100R/A169T/D86S/F76Y/I96L/K127E/L162R/M171V/N62H/P40V/Q125Y/R42H/S133A/S149N/S66Y/V115G/V209L/W38E). It counts as binding.
A further assay addresses DR4w4 (DRB1*0401) (Homo sapiens, UniProt P01903+P01911, A100K/A169T/F76Y/I96L/K127E/L162R/M171V/N62H/P40V/Q125Y/R42H/S133A/S149N/S66Y/V115G/V209L/W38E). It counts as binding.
For the next assay, the target named is DRB1*0802 (Homo sapiens, UniProt P01903+P01911, A100R/A103L/A169T/F76Y/H45Y/I96F/K41T/L162R/M171V/P40S/Q125H/Q178H/Q39Y/Q99D/R218S/R42G/S66Y/V115G/W38E). It counts as binding.
For a further assay, the target named is DRB1*0901 (Homo sapiens, UniProt P01903+P01911, A100R/A103E/D57H/D86V/F55Y/F60I/F76Y/I96F/K127E/L162R/M171V/P40D/Q125H/Q99R/R33Q/R42F/S133A/S66N/T210M/V115G/W38K/Y107V/Y59G/Y89S). The format is binding.

No end group written: not given here. A value given as a limit tells only on which side of the number the result lay.

Drawing on US9340577B2, “HLA binding motifs and peptides and their uses” (priority 1992, dated 2016), this text covers IC50 for 13 compounds.

Chain of DRB1*0301 (P01903 26-254 limits assumed, other chains not shown): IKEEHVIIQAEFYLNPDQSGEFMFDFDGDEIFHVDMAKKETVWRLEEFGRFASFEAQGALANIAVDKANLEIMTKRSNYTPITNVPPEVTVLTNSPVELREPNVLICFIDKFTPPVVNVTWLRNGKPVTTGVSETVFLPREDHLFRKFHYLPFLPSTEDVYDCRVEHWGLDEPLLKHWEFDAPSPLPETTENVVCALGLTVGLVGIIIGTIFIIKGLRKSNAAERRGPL
Chain of DRB1*1302 (P01903 26-254 limits assumed, other chains not shown): as above
Chain of DRB1*1101 (P01903 26-254 limits assumed, other chains not shown): as above

By IC50 is commonly meant the concentration at which inhibition is half-maximal. A higher IC50 goes with a need for much substance. In the case of `CC(C)C[C@H](NC(=O)[C@H](CCC(N)=O)NC(=O)[C@H](CCCCN)NC(=O)[C@@H](NC(=O)[C@H](CC(C)C)NC(=O)[C@H](CCC(N)=O)NC(=O)[C@@H](NC(=O)[C@H](C)NC(=O)[C@H](CO)NC(=O)[C@@H](NC(=O)[C@@H](NC(=O)[C@H](CC(=O)O)NC(=O)[C@H](CC(=O)O)NC(=O)[C@@H](N)CO)[C@@H](C)O)C(C)C)[C@@H](C)O)C(C)C)C(=O)N[C@@H](CCC(N)=O)C(=O)O` [Peptide 1601.13], the IC50 was 7.24 µM against DR1 (DRB1*0101); over 20 µM at DRB3*0101; 0.026 µM against DRB4*0101; over 20 µM on DRB5*0101; 15.6 µM at DRB1*1101; 16.5 µM on DRB1*1302. For the same compound, the IC50 on DR7 (DRB1*0701) was 7.67 µM; against DRB1*0301, 10.5 µM; on DRB1*1501 it was over 20 µM; on DRB1*0405, 16.3 µM; against DR4w4 (DRB1*0401), 9.55 µM; against DRB1*0802 it was 19.3 µM.
On to `CC[C@H](C)[C@H](NC(=O)CNC(=O)[C@@H](NC(=O)[C@H](CCCCN)NC(=O)[C@H](CCC(=O)O)NC(=O)[C@H](CC(N)=O)NC(=O)CNC(=O)[C@H](C)N)[C@@H](C)O)C(=O)N[C@@H](CC(C)C)C(=O)N[C@H](C(=O)N[C@H](C(=O)N[C@H](C(=O)N[C@@H](Cc1ccc(O)cc1)C(=O)N[C@@H](Cc1c[nH]cn1)C(=O)N[C@@H](CO)C(=O)O)[C@@H](C)O)C(C)C)[C@@H](C)O` [Peptide 1601.18], for which the IC50 against DR1 (DRB1*0101) is over 20 µM; against DRB3*0101, over 20 µM; at DRB4*0101 it was 0.932 µM; on DRB5*0101 it was over 20 µM; at DRB1*1101, over 20 µM; against DRB1*1302 it was over 20 µM. In addition, the half-inhibitory concentration (IC50) is over 20 µM on DRB1*0901; over 20 µM against DRB1*0301; 2.81 µM on DRB1*1501; 6.75 µM on DRB1*0405; 3.99 µM on DR4w4 (DRB1*0401); over 20 µM against DRB1*0802.
In the case of DICNTMHYTNWTHIY [Peptide 1601.04], the IC50 is 8.96 µM against DR1 (DRB1*0101); 7.2 µM against DRB3*0101; 6.05 µM on DRB4*0101; over 20 µM on DRB5*0101; over 20 µM on DRB1*1101; 1.04 µM against DRB1*1302. For the same compound, the IC50 at DRB1*0901 worked out at 4.85 µM; on DR7 (DRB1*0701), 0.412 µM; against DRB1*0301 it was 14.8 µM; on DRB1*0405, 2.82 µM; against DR4w4 (DRB1*0401) it was 0.883 µM.
For the compound DSVDSVNCGVISAAA [Peptide 1601.24], the IC50 against DR1 (DRB1*0101) is 0.916 µM; against DRB3*0101 it was over 20 µM; at DRB4*0101 it was 8.71 µM; at DRB5*0101, over 20 µM; on DRB1*1101 it was over 20 µM; against DRB1*1302, 0.736 µM. Further, the IC50 was 6.73 µM at DRB1*0901; 2.14 µM at DR7 (DRB1*0701); over 20 µM against DRB1*0301; over 20 µM on DRB1*1501; 13.6 µM at DRB1*0405; 1.28 µM at DR4w4 (DRB1*0401). The compound further registered an IC50 against DRB1*0802 of over 20 µM.
For FLDVVTIPNSVQISV [Peptide 1601.40], the IC50 against DR1 (DRB1*0101) is 0.551 µM; against DRB3*0101, 17.6 µM; against DRB4*0101, 2.21 µM; on DRB5*0101, over 20 µM; at DRB1*1101, 2.2 µM; against DRB1*1302, 0.053 µM. Further, the IC50 is 9.35 µM against DRB1*0901; 0.492 µM against DR7 (DRB1*0701); 8.36 µM at DRB1*0301; 1.78 µM on DRB1*0405; 0.017 µM against DR4w4 (DRB1*0401); 14.7 µM on DRB1*0802.
For the compound GVNHQHLPARRAEPQ [Peptide 1543.05], the IC50 against DR1 (DRB1*0101) is 0.276 µM; at DRB3*0101, over 20 µM; against DRB4*0101, 14.6 µM; at DRB5*0101, over 20 µM; on DRB1*1101, over 20 µM; at DRB1*1302, over 20 µM. The IC50 was over 20 µM on DRB1*0901; 16.8 µM against DR7 (DRB1*0701); over 20 µM at DRB1*0301; over 20 µM against DRB1*1501; over 20 µM against DRB1*0405; over 20 µM against DR4w4 (DRB1*0401). The IC50 at DRB1*0802 was over 20 µM.
As to LKGDANILKCLRYRL [Peptide 1601.26], the IC50 against DR1 (DRB1*0101) was 17.2 µM; at DRB3*0101, 3.19 µM; at DRB4*0101 it was 6.22 µM; on DRB5*0101 it was over 20 µM; on DRB1*1101 it was 5.53 µM; on DRB1*1302, 6.9 µM. Further, the IC50 on DRB1*0901 was over 20 µM; on DR7 (DRB1*0701), 9.02 µM; on DRB1*0301, 0.052 µM; against DRB1*1501, 0.609 µM; against DRB1*0405, 3.14 µM; against DR4w4 (DRB1*0401), 5.59 µM.
Regarding LSQRLNVCQDKILEH [Peptide 1601.21], the IC50 was over 20 µM at DR1 (DRB1*0101); over 20 µM against DRB3*0101; 5.03 µM against DRB4*0101; over 20 µM on DRB5*0101; over 20 µM at DRB1*1101; over 20 µM against DRB1*1302. Further, the IC50 against DRB1*0901 is over 20 µM; on DR7 (DRB1*0701), over 20 µM; against DRB1*0301, 0.21 µM; at DRB1*1501 it was over 20 µM; at DRB1*0405, 4.63 µM; at DR4w4 (DRB1*0401), over 20 µM. The IC50 against DRB1*0802 is over 20 µM.
NTTPIIHLKGDKNSL [Peptide 1601.37]: the IC50 is 0.86 µM against DR1 (DRB1*0101); over 20 µM on DRB3*0101; 0.075 µM against DRB4*0101; over 20 µM at DRB5*0101; over 20 µM at DRB1*1101; 5.44 µM against DRB1*1302. The IC50 against DRB1*0901 was over 20 µM; on DR7 (DRB1*0701), 18.8 µM; against DRB1*0301, 7.48 µM; against DRB1*1501 it was 11.4 µM; against DRB1*0405, over 20 µM; against DR4w4 (DRB1*0401) it was 11.9 µM. It took 1.9 µM to reach half-maximal inhibition against DRB1*0802 (IC50).
As to PCHTTKLLHRDSVDS [Peptide 1601.07], the IC50 is over 20 µM at DR1 (DRB1*0101); over 20 µM against DRB3*0101; 0.672 µM at DRB4*0101; over 20 µM at DRB5*0101; 2.96 µM at DRB1*1101; over 20 µM against DRB1*1302. For the same compound, the IC50 at DRB1*0901 is over 20 µM; at DR7 (DRB1*0701), over 20 µM; on DRB1*0301, 7.26 µM; against DRB1*1501 it was over 20 µM; at DRB1*0405 it was over 20 µM; at DR4w4 (DRB1*0401), over 20 µM. Also, on DRB1*0802, the IC50 turned out to be 2.78 µM.
On to PTGCLKKHGYTVEVQ [Peptide 1601.23], for which the IC50 against DR1 (DRB1*0101) was 17.9 µM; against DRB3*0101 it was over 20 µM; against DRB4*0101, 7.47 µM; at DRB5*0101 it was over 20 µM; at DRB1*1101 it was over 20 µM; at DRB1*1302, 0.082 µM. Further, the IC50 is 1.74 µM against DRB1*0901; 2.27 µM at DR7 (DRB1*0701); over 20 µM at DRB1*0301; over 20 µM at DRB1*0405; 19.8 µM against DR4w4 (DRB1*0401); over 20 µM at DRB1*0802.
With SNEVSSPEIIRQHLA [Peptide 1601.06], the IC50 on DR1 (DRB1*0101) was over 20 µM; against DRB3*0101 it was over 20 µM; against DRB4*0101, 0.013 µM; at DRB5*0101, over 20 µM; at DRB1*1101, over 20 µM; against DR7 (DRB1*0701), 8.61 µM. Also, the IC50 at DRB1*0301 is 4.79 µM; against DRB1*1501, 5.36 µM; against DRB1*0405, over 20 µM; at DR4w4 (DRB1*0401) it was over 20 µM; at DRB1*0802 it was over 20 µM.
On to TYISTSQRDDFLNTV [Peptide 1601.27], for which the IC50 on DR1 (DRB1*0101) is over 20 µM; against DRB3*0101, 6.62 µM; at DRB4*0101 it was 0.48 µM; on DRB5*0101, over 20 µM; at DRB1*1101 it was over 20 µM; against DRB1*0901 it was 13 µM. Further, the IC50 against DRB1*0301 is 0.152 µM; against DRB1*1501 it was over 20 µM; on DRB1*0405, 5.2 µM; against DR4w4 (DRB1*0401), 16.3 µM; against DRB1*0802, over 20 µM.
